Assay results as given in the SangsterLogP compilation.

assay: method code SF-AS, from Bernabe, T.; Forni, F.; Bellei, S.; Cameroni, R. (1980). Partition coefficients of a series of substituted benzoic acids. Atti Soc. Nat. Mat Modena, 111(1)63-72.; details: pH 1.0

First: O=C(O)c1cc(I)ccc1O
Second: O=C(O)c1ccc(O)c(Cl)c1
The logD of the first is higher: 2.63 for the first, 2.41 for the second.

Going from `O=C(O)c1cc([N+](=O)[O-])c(Cl)c([N+](=O)[O-])c1` to `O=C(O)c1cc([N+](=O)[O-])cc([N+](=O)[O-])c1O`, the logD falls from 2.5 to 1.71.

First: COc1ccc(C(=O)O)cc1OC
Second: COc1cc(OC)cc(C(=O)O)c1
The logD of the first is lower: 1.61 for the first, 2.19 for the second.

Going from `COc1cccc(C(=O)O)c1O` to `Cc1cccc(C(=O)O)c1O`, the logD rises from 1.94 to 2.86.

`O=C(O)c1cc(Cl)ccc1[N+](=O)[O-]` and `O=C(O)c1ccc(Cl)cc1[N+](=O)[O-]` are within 0.2 log units of each other in logD: 2.13 for the first, 2.08 for the second.

`Nc1cc([N+](=O)[O-])ccc1C(=O)O` and `O=C(O)c1ccc(O)c([N+](=O)[O-])c1` are within 0.2 log units of each other in logD: 1.91 for the first, 1.85 for the second.

`Nc1c(Cl)cc(Cl)cc1C(=O)O` and `O=C(O)c1ccc([N+](=O)[O-])c(O)c1` are within 0.2 log units of each other in logD: 1.82 for the first, 1.98 for the second.
